Biological target: urease enzyme from the Jack bean (Canavalia ensiformis) (Canavalia ensiformis, UniProt P07374)
Assay: In vitro urease assay
Format: biochemical

Chain of urease enzyme from the Jack bean (Canavalia ensiformis) (P07374 whole entry, looked up): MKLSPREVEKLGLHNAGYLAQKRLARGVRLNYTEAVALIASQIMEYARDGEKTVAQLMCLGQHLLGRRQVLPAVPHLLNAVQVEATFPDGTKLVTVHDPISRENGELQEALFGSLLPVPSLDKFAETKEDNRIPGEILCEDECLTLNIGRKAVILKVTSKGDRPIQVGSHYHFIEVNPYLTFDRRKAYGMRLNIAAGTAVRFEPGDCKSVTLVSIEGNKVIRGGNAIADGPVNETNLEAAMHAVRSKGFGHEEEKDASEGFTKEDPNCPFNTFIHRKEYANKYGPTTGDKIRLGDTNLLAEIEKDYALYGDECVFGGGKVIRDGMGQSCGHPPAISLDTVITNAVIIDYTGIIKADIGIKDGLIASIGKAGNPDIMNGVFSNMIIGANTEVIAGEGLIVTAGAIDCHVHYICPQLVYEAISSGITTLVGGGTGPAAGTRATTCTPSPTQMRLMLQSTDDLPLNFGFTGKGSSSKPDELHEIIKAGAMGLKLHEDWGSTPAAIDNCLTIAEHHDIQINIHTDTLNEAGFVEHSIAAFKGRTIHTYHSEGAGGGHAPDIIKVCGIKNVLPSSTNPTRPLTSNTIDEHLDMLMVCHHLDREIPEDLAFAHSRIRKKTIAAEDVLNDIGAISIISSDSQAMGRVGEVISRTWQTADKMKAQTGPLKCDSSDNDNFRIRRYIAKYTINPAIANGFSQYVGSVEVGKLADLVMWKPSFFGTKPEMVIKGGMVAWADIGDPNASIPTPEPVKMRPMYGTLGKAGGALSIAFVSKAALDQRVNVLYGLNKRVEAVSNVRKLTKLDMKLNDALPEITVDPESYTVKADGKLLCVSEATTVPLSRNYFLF

Clc1ccc(C2=Nn3c(nnc3-c3cccc(Br)c3)SC2)cc1Cl [5p]
IC50: 13 ± 0.37 µM

COc1ccc(-c2nnc3sc(COc4ccccc4C)nn23)cc1 [compound 4c]
IC50: 12 ± 0.25 µM

COc1ccc(-c2nnc3n2N=C(c2ccc(F)cc2)CS3)cc1 [5c]
IC50: 6.93 ± 0.14 µM

O=[N+]([O-])c1ccc(C2=Nn3c(nnc3-c3cccc(Br)c3)SC2)cc1 [5o]
IC50: 7.72 ± 0.31 µM

Fc1ccc(OCc2nn3c(-c4cccc(Br)c4)nnc3s2)cc1 [compound 4l]
IC50: 46.8 ± 0.63 µM

Brc1cccc(-c2nnc3n2N=C(c2cccc4ccccc24)CS3)c1 [5n]
IC50: 7.2 ± 0.18 µM

COc1ccc(-c2nnc3sc(COc4ccc(C)cc4)nn23)cc1 [compound 4d]
IC50: 39 ± 0.53 µM

Clc1ccc(C2=Nn3c(nnc3-c3cccc(Br)c3)SC2)cc1 [5j]
IC50: 11.5 ± 0.38 µM

COc1ccc(-c2nnc3n2N=C(c2ccc(Cl)cc2)CS3)cc1 [5b]
IC50: 8.37 ± 0.16 µM

Cc1ccccc1OCc1nn2c(-c3cccc(Br)c3)nnc2s1 [compound 4i]
IC50: 9.63 ± 0.32 µM

COc1ccc(C2=Nn3c(nnc3-c3cccc(Br)c3)SC2)cc1 [5i]
IC50: 9.55 ± 0.41 µM

COc1ccc(-c2nnc3n2N=C(c2cccc4ccccc24)CS3)cc1 [5f]
IC50: 10.5 ± 0.26 µM

COc1ccc(-c2nnc3sc(COc4ccc(O)cc4)nn23)cc1 [4b]
IC50: 25.2 ± 0.56 µM

COc1ccc(-c2nnc3n2N=C(c2ccc(C)cc2)CS3)cc1 [5d]
IC50: 5.16 ± 0.14 µM

Oc1ccccc1OCc1nn2c(-c3cccc(Br)c3)nnc2s1 [4g]
IC50: 4.5 ± 0.13 µM

Oc1ccc(OCc2nn3c(-c4cccc(Br)c4)nnc3s2)cc1 [4h]
IC50: 6.79 ± 0.24 µM

Cc1ccc(OCc2nn3c(-c4cccc(Br)c4)nnc3s2)cc1 [compound 4j]
IC50: 4.67 ± 0.15 µM

COc1ccc(-c2nnc3n2N=C(c2ccc(Cl)c(Cl)c2)CS3)cc1 [5h]
IC50: 5.3 ± 0.17 µM

Fc1ccc(C2=Nn3c(nnc3-c3cccc(Br)c3)SC2)cc1 [compound 5k]
IC50: 3.33 ± 0.11 µM | inhibitory potential fold higher than thiourea (relative to thiourea IC50): ~6.5 fold

Cc1ccc(C2=Nn3c(nnc3-c3cccc(Br)c3)SC2)cc1 [5l]
IC50: 5.56 ± 0.12 µM

COc1ccc(C2=Nn3c(nnc3-c3ccc(OC)cc3)SC2)cc1 [5a]
IC50: 5.91 ± 0.13 µM

Reference: paper PMC10483676 (ACS Omega, 2023)
